Assay results from US4150970A, “Growth regulator for plants” (Board of Trustees of Michigan State University, priority 1977, dated 1979).
“Also recorded” adds a separate entry of the source.

What was measured:
rice = assay: Synthetic triacontanol on rice in nutrient cultures (Example III); assay type: in vivo; details: for Dry wt / Water Uptake: seven days
Experimental: (§1) Synthetic triacontanol in aqueous solution was applied to rice (4 replicates) in nutrient cultures and to "Chico III" tomatoes (6 replicates) grown in soil as previously described. The response of both rice and tomatoes to synthetic triacontanol after seven and six days respectively was similar to that of the natural triacontanol with the optimum rate at between 0.01 and 0.1 mg per liter, as summarized in the following table III:
^1 Treatments applied on filter paper, including control and placed i
nutrient solution. The solution was changed after 4 days. Seedlings
weighed 57 mg at initiation of test.

Chico III tomatoes = assay: Synthetic triacontanol on tomatoes grown in soil, foliage sprayed (Example III); assay type: in vivo, tomato; details: six days
Experimental: as §1
^2 Tomatoes grown in greenhouse soil and foliage sprayed, including

[1] = system: Starbonnet rice seedlings; assay: Growth analysis of Starbonnet rice seedlings under different light intensities (Example VI); assay type: in vivo; parameters: key to NAR: mg plant weight per cm^2 leaf area per day; RGR / LAR: unit not given here
Experimental: (§2) Rice seed cv. IR-8, or Starbonnet was surface treated with 0.1 percent mercuric chloride and planted in 77 cc plastic cups containing vermiculite and watered with one-fourth Hoagland's nutrient solution containing 3 mM of nitrogen at pH 5.0. After 10 days, seedlings were transplanted to 220 cc specimen cups wrapped in aluminum foil and containing 180 cc of the same Hoagland's nutrient solution. Four seedlings were suspended in the solution with a sponge rubber disc. The plants were grown under a 8 h night at 25° C. and a 16 h day at 30° C. with 21 and 8 μwatts per cm^2 in the blue and red spectra respectively. In the test with varying light intensity the high light intensity was 30 13 and the low intensity was 15 and 8 μwatts per cm^2 for the blue and red spectra respectively. The nutrient solution was renewed every 2 or 3 days. After one week the plants were sorted for size and similar sized plants assigned to the same block for the experiment. Prior to the initiation of a test the plants in each cup were assigned treatment numbers by use of a random number table. […] Sixteen hours prior to a test the foil wrapped cups were tared, and filled with one-half Hoaglands solution containing 6 mM nitrogen. Eighteen μl of chloroform or chloroform containing 1.8 μg triacontanol were placed on 2 cm^2 of Whatman No. 1 filter papers, air dried and placed in the specimen cups. This concentration of 10 μg triacontanol/liter was used for all tests described in the following Examples except where specifically indicated to the contrary. Immediately prior to the test the cups were all brought up to 180 ml. including a set of cups without plants to measure evaporation.
The plants were disected at harvest into shoots and roots. The expanded leaves were cut at the ligule and the newest leaf at the point it entered the sheath. The surface area of expanded leaves were measured using a Lambda Model LI-3000 planimeter. The plants were dried to constant weight in an oven at 100° C. and the roots, expanded leaves, and sheaths were weighed separately.
Growth analysis was conducted according to Evans (1972). The Net Assimulation Rate (NAR) is the increase in plant weight per unit of leaf area over time interval where: W=total weight per plant in mg, T=time in days, and L=leaf area in cm^2. [formula]
The relative growth rate (RGR) is the increase in plant weight per unit of original weight over a time interval and is obtained by: [formula]
The leaf area ratio is the ratio of leaf area to […] over a time interval. [formula]
This Example presents a growth analysis of `Starbonnet` rice seedlings treated with triacontanol under different light intensities, "Low" and "High" intensities are defined above, and in the Table VI these designations represent the light to which each plant was subjected.

IR-8 rice seedlings [2] = assay: Total protein content of rice seedlings grown in the dark for six hours (Example VIII); assay type: in vivo
Experimental: as §2
Plants were placed in 20×32 cm glass jars fitted with gas inlet and outlet ports. Three jars containing 2 cups each were used for a total of 24 plants for each treatment. The plants were ventilated with air or freed of CO2 by passing it through ascarite and then humidified. The flow rate was approximately 300 ml/minute. […]
The total protein (nitrogen) content of 17 day old "IR-8" rice seedlings was determined, where […]

IR-8 rice seedlings [3] = assay: Dry weight and total protein of 18-day-old rice seedlings in light and dark for 24 hours (Examples X and XVII); assay type: in vivo; details: for Dry Wt, Entire Plant / Dry Wt, Expanded leaves / Dry Wt, Roots / Dry Wt, Sheaths: 24 hours
Experimental: as §2
Plants were placed in 20×32 cm glass jars fitted with gas inlet and outlet ports. Three jars containing 2 cups each were used for a total of 24 plants for each treatment. The plants were ventilated with air or freed of CO2 by passing it through ascarite and then humidified. The flow rate was approximately 300 ml/minute. Carbon dioxide-free air was also used to purge the appropriate jars during a two minute period required to place the plants in the jars. The N analyses were done by the automated micro-Kjelldahl procedure of Ferrari (1960).
Using the materials and procedures set forth above, dry weight and total protein (nitrogen) content of 18-day-old "IR-8" rice seedlings grown in light and dark for 24 hours with or without triacontanol was determined. Table X sets forth the results:
This example was run to determine the percent change in dry weight of whole 18-day-old "IR-8" rice seedlings treated with triacontanol in the light and dark over a 24 hour period expressed as percent change from zero time. The dry weight at zero time was 50.8 mg per seedling.

Mich. 396 Field Corn = assay: Single and multiple applications on field corn at two fertility levels (Example XIV); assay type: in vivo
Experimental: Tests were run to study the effect of single and multiple applications of triacontanol on the growth of "Mich. 396 Field Corn" grown at two Fertility Levels in a greenhouse soil. Plants were treated at 14 days after planting and were harvested 37 days after planting. The following results were obtained (Table XIV).

## CCCCCCCCCCCCCCCCCCCCCCCCCCCCCCO [Triacontanol, 1-triacontanol]
rice; 0.001 mg/liter
  Dry wt: 103 mg/plant
  Water Uptake: 37.0 g/plant
rice; 0.010 mg/liter
  Dry wt: 107 mg/plant
  Water Uptake: 38.8 g/plant
rice; 0.100 mg/liter
  Dry wt: 106 mg/plant
  Water Uptake: 39.0 g/plant
rice; 1.000 mg/liter
  Dry wt: 91 mg/plant
  Water Uptake: 33.4 g/plant
rice; Oryza sativa, soil, rice seedlings, nutrient cultures
  minimal effective concentration: ≥ 0.001 µg/mL
Chico III tomatoes; 0.001 mg/liter
  Dry wt: 227 mg/shoot
Chico III tomatoes; 0.010 mg/liter
  Dry wt: 251 mg/shoot
Chico III tomatoes; 0.100 mg/liter
  Dry wt: 245 mg/shoot
Chico III tomatoes; 1.000 mg/liter
  Dry wt: 234 mg/shoot
[1]; high light, 0-4 hours
  LAR: 3.31
  NAR: 6.42
  RGR: 0.89
[1]; high light, 5-8 hours
  LAR: 3.45
  NAR: 3.96
  RGR: 0.57
[1]; high light, 9-16 hours
  LAR: 3.74
  NAR: 3.19
  RGR: 0.50
[1]; low light intensities
  dry weight accumulation per leaf area at low light versus control at high light: as much dry weight per cm^2 of leaf area at low light intensities as the control plants did at the higher light intensity; also recorded: as much dry weight per unit of leaf area at low light intensities as the control plants did at higher light intensities
[1]; low light, 0-4 hours
  LAR: 3.76
  NAR: 3.77
  RGR: 0.59
[1]; low light, 5-8 hours
  LAR: 3.90
  NAR: 4.14
  RGR: 0.67
[1]; low light, 9-16 hours
  LAR: 4.20
  NAR: 2.81
  RGR: 0.49
IR-8 rice seedlings [2]
  higher concentration of total protein in 4th leaf than the control: 11%
  total increase in protein per plant versus zero time: 18%
  total protein per (4th) leaf: doubling
IR-8 rice seedlings [3]; dark, 6- and 24-hour harvests
  dry weight in the dark versus dark controls: gained significantly more weight than the dark controls
IR-8 rice seedlings [3]; dark
  Dry Wt, Entire Plant: 55.0 mg/plant
  Dry Wt, Expanded leaves: 22.0 mg/plant
  Dry Wt, Roots: 20.3 mg/plant
  Dry Wt, Sheaths: 12.8 mg/plant
IR-8 rice seedlings [3]; light
  Dry Wt, Entire Plant: 72.9 mg/plant
  Dry Wt, Expanded leaves: 30.3 mg/plant
  Dry Wt, Roots: 24.6 mg/plant
  Dry Wt, Sheaths: 18.0 mg/plant
Mich. 396 Field Corn; high fertility, 1 application
  Dry Weight: 2.032 g/plant
Mich. 396 Field Corn; high fertility, 5 applications
  Dry Weight: 1.913 g/plant
Mich. 396 Field Corn; low fertility, 1 application
  Dry Weight: 1.297 g/plant
Mich. 396 Field Corn; low fertility, 5 applications
  Dry Weight: 1.696 g/plant
